Measured values published in ChEMBL document CHEMBL1933051, “Cytotoxic bistetrahydrofuran annonaceous acetogenins from the seeds of Annona squamosa” (J Nat Prod, 2011).
In brackets after ≈: the same amount, converted by molar mass.

Experiments:
Format in all cases: functional, cell-based
[1] = tested on: A549; assay: Cytotoxicity against human A549 cells by MTT assay
[2] = tested on: MKN-45; assay: Cytotoxicity against human MKN45 cells by MTT assay
[3] = tested on: SMMC-7721; assay: Cytotoxicity against human SMMC7721 cells by MTT assay
[4] = tested on: MCF7; assay: Cytotoxicity against human MCF7 cells by MTT assay
[5] = tested on: HeLa; assay: Cytotoxicity against human HeLa cells by MTT assay
[6] = tested on: HepG2; assay: Cytotoxicity against human HepG2 cells by MTT assay

| Compound | IC50 [1] [µg/mL] | IC50 [2] [µg/mL] | IC50 [3] [µg/mL] | IC50 [4] [µg/mL] | IC50 [5] [µg/mL] | IC50 [6] [µg/mL] |
| --- | --- | --- | --- | --- | --- | --- |
| CCCCCCCCCCCC(O)CCC[C@H](O)[C@H]1CC[C@H]([C@H]2CC[C@H]([C@H](O)CCCCCCCC3=C[C@H](C)OC3=O)O2)O1 (relative stereo) | 0.012 (≈ 0.0193 µM) | 0.042 (≈ 0.0674 µM) | 0.057 (≈ 0.0915 µM) | 0.052 (≈ 0.0835 µM) | 0.025 (≈ 0.0401 µM) | 0.022 (≈ 0.0353 µM) |
| CCCC[C@H](O)[C@H](O)[C@@H]1CC[C@@H]([C@H](O)CC[C@H](O)[C@@H]2CC[C@@H](CCCCCCCCCCCCCCC3=C[C@H](C)OC3=O)O2)O1 (relative stereo) | 0.31 (≈ 0.485 µM) | 0.14 (≈ 0.219 µM) | 0.11 (≈ 0.172 µM) | 0.5 (≈ 0.783 µM) | 0.57 (≈ 0.892 µM) | 0.17 (≈ 0.266 µM) |
| CCCCC[C@H](O)[C@@H]1CC[C@@H]([C@H](O)CC[C@H](O)[C@@H]2CC[C@@H](CCCCCCCCCCCC[C@@H](O)CC3=C[C@H](C)OC3=O)O2)O1 (relative stereo) | 0.68 (≈ 1.06 µM) | 0.59 (≈ 0.923 µM) | 0.39 (≈ 0.61 µM) | 0.75 (≈ 1.17 µM) | 1.5 (≈ 2.35 µM) | 0.8 (≈ 1.25 µM) |
| CCCCCCCCCC[C@@H](O)[C@@H]1CC[C@@H]([C@@H]2CC[C@@H]([C@H](O)CCCCCCCCCC(O)CC3=CC(C)OC3=O)O2)O1 (stereo partly drawn) [BULLATACIN] | 0.033 (≈ 0.0542 µM) | 0.053 (≈ 0.087 µM) | 0.0048 (≈ 0.00788 µM) | 0.043 (≈ 0.0706 µM) | 0.034 (≈ 0.0558 µM) | 0.032 (≈ 0.0526 µM) |
| O=c1[nH]cc(F)c(=O)[nH]1 [FLUOROURACIL] | 0.32 (≈ 2.46 µM) | 0.36 (≈ 2.77 µM) | 0.023 (≈ 0.177 µM) | 0.22 (≈ 1.69 µM) | 0.14 (≈ 1.08 µM) | 0.0082 (≈ 0.063 µM) |
| CCCCCC[C@@H](O)CCC[C@H](O)[C@@H]1CC[C@@H]([C@H](O)CC[C@@H](O)[C@@H]2CC[C@@H](CCCCCCCCCC3=C[C@@H](C)OC3=O)O2)O1 [Squamostatin-A] | 0.21 (≈ 0.329 µM) | 0.93 (≈ 1.46 µM) | 0.49 (≈ 0.767 µM) | 0.15 (≈ 0.235 µM) | 0.45 (≈ 0.704 µM) | 0.83 (≈ 1.3 µM) |
| CCCCCCCCCC[C@H](O)[C@@H]1CC[C@@H]([C@H](O)CC[C@@H](O)[C@@H]2CC[C@@H](CCCCCCCCCC3=C[C@@H](C)OC3=O)O2)O1 [Squamostatin-D] | 0.046 (≈ 0.0738 µM) | 0.87 (≈ 1.4 µM) | 0.25 (≈ 0.401 µM) | 0.11 (≈ 0.177 µM) | 0.1 (≈ 0.161 µM) | 0.56 (≈ 0.899 µM) |
| CCCCCCCCCC[C@@H](O)[C@H]1CC[C@H]([C@H]2CC[C@H]([C@H](O)CCCCCCCCC[C@H](O)CCC3=C[C@H](C)OC3=O)O2)O1 [UVARIGRANDIN A] | 0.08 (≈ 0.128 µM) | 0.069 (≈ 0.111 µM) | 0.0029 (≈ 0.00466 µM) | 0.096 (≈ 0.154 µM) | 0.07 (≈ 0.112 µM) | 0.78 (≈ 1.25 µM) |
